Values joined by “and” are separate entries in the source; they are usually repeats but may differ in a detail not shown here. Equal entries are not always repeated. Toxic doses and inconclusive results are not listed. Rule as the data show it: active = T/C of 150% or more; inactive = T/C below 125%.
System: L1210 leukemia ip in BDF1 mice, survival T/C
Assay: NCI In Vivo Anticancer Drug Screen. Data for tumor model L1210 Leukemia (intraperitoneal) in B6D2F1 (BDF1) mice
Settings: endpoint: mean survival time, higher = longer survival
Outline: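 Tumor cells were implanted, animals were treated, and survival was followed. The result divides the treated measurement by the vehicle-control measurement.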

[1] = dose: 100.0 mg/kg/injection, schedule: Q04DX003 (ip), vehicle: saline
[2] = dose: 200.0 mg/kg/injection, schedule: Q04DX003 (ip), vehicle: saline
[3] = dose: 400.0 mg/kg/injection, schedule: Q04DX003 (ip), vehicle: saline
[4] = dose: 100.0 mg/kg/injection, schedule: Q01DX009 (ip), vehicle: saline
[5] = dose: 200.0 mg/kg/injection, schedule: Q01DX009 (ip), vehicle: saline
[6] = dose: 400.0 mg/kg/injection, schedule: Q01DX009 (ip), vehicle: saline
[7] = dose: 100.0 mg/kg/injection, schedule: Q01DX009 (ip), vehicle: Klucel (hydroxypropylcellulose) (HPC)
[8] = dose: 100.0 mg/kg/injection, schedule: Q04DX003 (ip), vehicle: Klucel (hydroxypropylcellulose) (HPC)
[9] = dose: 200.0 mg/kg/injection, schedule: Q01DX009 (ip), vehicle: Klucel (hydroxypropylcellulose) (HPC)
[10] = dose: 200.0 mg/kg/injection, schedule: Q04DX003 (ip), vehicle: Klucel (hydroxypropylcellulose) (HPC)
[11] = dose: 400.0 mg/kg/injection, schedule: Q04DX003 (ip), vehicle: Klucel (hydroxypropylcellulose) (HPC)
[12] = dose: 100.0 mg/kg/injection, schedule: Q04DX003 (ip), vehicle: saline with Tween-80
[13] = dose: 200.0 mg/kg/injection, schedule: Q04DX003 (ip), vehicle: saline with Tween-80
[14] = dose: 400.0 mg/kg/injection, schedule: Q04DX003 (ip), vehicle: saline with Tween-80
[15] = dose: 100.0 mg/kg/injection, schedule: Q01DX009 (ip), vehicle: saline with Tween-80

Measured: T/C

C/C(=C\COc1ccccc1)CCC1OC1(C)C (stereo not given)
inactive: dose: 100.0 mg/kg/injection, schedule: Q04DX002 (ip), vehicle: saline with Tween-80 100 % of control | dose: 200.0 mg/kg/injection, schedule: Q04DX002 (ip), vehicle: saline with Tween-80 93 % of control | dose: 400.0 mg/kg/injection, schedule: Q04DX002 (ip), vehicle: saline with Tween-80 104 % of control

C=C(C)CON=C(c1ccccc1)c1ccccc1
inactive: [1] 92 % of control | [2] 96 % of control | [3] 97 % of control

COC(=O)C1CCN1C(C)(C)C (stereo not given)
inactive: [4] 95 % of control | [1] 111 % of control | [5] 95 % of control | [2] 105 % of control | [6] 103 % of control | [3] 110 % of control

N/N=C1/CCc2ccccc21
inactive: dose: 100.0 mg/kg/injection, schedule: Q01DX001 (ip), vehicle: Klucel (hydroxypropylcellulose) (HPC) 90 % of control | dose: 200.0 mg/kg/injection, schedule: Q01DX001 (ip), vehicle: Klucel (hydroxypropylcellulose) (HPC) 112 % of control

Nc1ncnc2c1ncn2C1OC(C(=O)NO)C(O)C1O (stereo not given)
inactive: dose: 0.78 mg/kg/injection, schedule: Q01DX009 (ip), vehicle: saline 106 % of control | dose: 1.56 mg/kg/injection, schedule: Q01DX005 (ip), vehicle: saline 104 % of control | dose: 1.56 mg/kg/injection, schedule: Q01DX009 (ip), vehicle: saline 123 % of control | dose: 3.12 mg/kg/injection, schedule: Q01DX005 (ip), vehicle: saline 121 % of control

CCCCCCCCCCCCCCCCCCNC(=O)CCl
inactive: [7] 94 % of control | [8] 92 % of control | [9] 89 % of control | [10] 90 % of control | [11] 97 % of control

O=NN(CCCl)C(=O)C1CCC(C(=O)N(CCCl)N=O)CC1 (stereo not given)
inactive: dose: 0.25 mg/kg/injection, schedule: Q01DX001 (ip), vehicle: carboxymethylcellulose (CMC) 108 % of control | dose: 0.5 mg/kg/injection, schedule: Q01DX001 (ip), vehicle: carboxymethylcellulose (CMC) 117 % of control | dose: 10.0 mg/kg/injection, schedule: Q01DX001 (ip), vehicle: carboxymethylcellulose (CMC) 124 % of control | dose: 15.0 mg/kg/injection, schedule: Q01DX001 (ip), vehicle: carboxymethylcellulose (CMC) 123 % of control | dose: 30.0 mg/kg/injection, schedule: Q01DX001 (ip), vehicle: carboxymethylcellulose (CMC) 118 % of control | dose: 62.0 mg/kg/injection, schedule: Q01DX001 (ip), vehicle: carboxymethylcellulose (CMC) 87 % of control

Cc1ccc([N+](=O)[O-])cc1NC(=O)OCCOc1ccccc1
inactive: [4] 90 % of control | [5] 103 % of control | [6] 92 % of control

Cc1ccc(NC(=O)Nc2cccc(Cl)c2)c(C)c1
inactive: [7] 86 % of control | [9] 94 % of control | dose: 400.0 mg/kg/injection, schedule: Q01DX009 (ip), vehicle: Klucel (hydroxypropylcellulose) (HPC) 87 % of control

COC(=O)C12C3OC(C4OC43)C1(C(=O)OC)C1OC2C2OC21 (stereo not given)
inactive: dose: 87.5 mg/kg/injection, schedule: Q01DX009 (ip), vehicle: Klucel (hydroxypropylcellulose) (HPC) 100 % of control | dose: 175.0 mg/kg/injection, schedule: Q01DX009 (ip), vehicle: Klucel (hydroxypropylcellulose) (HPC) 101 % of control | dose: 350.0 mg/kg/injection, schedule: Q01DX009 (ip), vehicle: Klucel (hydroxypropylcellulose) (HPC) 101 % of control

CS(=O)(=O)Oc1ccc(S(=O)(=O)F)cc1Cl
inactive: dose: 100.0 mg/kg/injection, schedule: Q04DX002 (ip), vehicle: Klucel (hydroxypropylcellulose) (HPC) 102 % of control | dose: 200.0 mg/kg/injection, schedule: Q04DX002 (ip), vehicle: Klucel (hydroxypropylcellulose) (HPC) 94 % of control

c1ccc(C2C(c3ccccc3)N2c2ccccc2)cc1 (stereo not given)
inactive: dose: 50.0 mg/kg/injection, schedule: Q01DX001 (ip), vehicle: carboxymethylcellulose (CMC) 105 % of control | dose: 100.0 mg/kg/injection, schedule: Q01DX001 (ip), vehicle: carboxymethylcellulose (CMC) 113 % of control | [8] 92 % of control | [12] 97 % of control | dose: 200.0 mg/kg/injection, schedule: Q01DX001 (ip), vehicle: carboxymethylcellulose (CMC) 113 % of control | [10] 94 % of control | [13] 90 % of control | dose: 400.0 mg/kg/injection, schedule: Q01DX001 (ip), vehicle: carboxymethylcellulose (CMC) 103 % of control | [11] 92 % of control | [14] 87 % of control

O=C(O)C(Cl)Cc1cnc[nH]1 (stereo not given)
inactive: dose: 50.0 mg/kg/injection, schedule: Q01DX009 (ip), vehicle: saline 100 % of control | [4] 100 % of control | [5] 103 % of control

CC(C)(Cl)CCl
inactive: [15] 106 % of control | [12] 101 % of control | dose: 200.0 mg/kg/injection, schedule: Q01DX009 (ip), vehicle: saline with Tween-80 89 % of control | [13] 98 % of control

C/C(Cc1ccccc1)=N\O
inactive: dose: 59.0 mg/kg/injection, schedule: Q01DX009 (ip), vehicle: saline with Tween-80 107 % of control | [15] 104 % of control | dose: 118.0 mg/kg/injection, schedule: Q01DX009 (ip), vehicle: saline with Tween-80 109 % of control | dose: 236.0 mg/kg/injection, schedule: Q01DX009 (ip), vehicle: saline with Tween-80 103 % of control | dose: 400.0 mg/kg/injection, schedule: Q01DX009 (ip), vehicle: saline with Tween-80 97 % of control

CC(=O)CC(=O)Nc1cc(Cl)c(NC(=O)CC(C)=O)cc1Cl
inactive: [13] 121 % of control | [14] 88 % of control

COP(=O)(O)NC(C)=O
inactive: dose: 100.0 mg/kg/injection, schedule: Q04DX002 (ip), vehicle: saline 105 % of control | dose: 200.0 mg/kg/injection, schedule: Q04DX002 (ip), vehicle: saline 108 % of control | dose: 400.0 mg/kg/injection, schedule: Q04DX002 (ip), vehicle: saline 91 % of control

CN(C)CC(=O)Nc1cc(Cl)ccc1Oc1ccc(Cl)cc1
inactive: [12] 94 % of control | [13] 100 % of control | [14] 100 % of control

CC(=O)[O][Hg][CH]1CCC2OC1CC[CH]2[Hg][O]C(C)=O (stereo not given)
inactive: dose: 12.5 mg/kg/injection, schedule: Q01DX009 (ip), vehicle: Klucel (hydroxypropylcellulose) (HPC) 97 % of control | dose: 25.0 mg/kg/injection, schedule: Q01DX009 (ip), vehicle: Klucel (hydroxypropylcellulose) (HPC) 94 % of control | dose: 25.0 mg/kg/injection, schedule: Q04DX003 (ip), vehicle: Klucel (hydroxypropylcellulose) (HPC) 91 % of control | dose: 50.0 mg/kg/injection, schedule: Q01DX009 (ip), vehicle: Klucel (hydroxypropylcellulose) (HPC) 96 % of control | dose: 50.0 mg/kg/injection, schedule: Q04DX003 (ip), vehicle: Klucel (hydroxypropylcellulose) (HPC) 98 % of control

Nc1nc(CCCCc2ccc(NC(=O)CBr)cc2)c(CCCCc2ccccc2)c(=O)[nH]1
inactive: dose: 6.25 mg/kg/injection, schedule: Q04DX003 (ip), vehicle: saline with Tween-80 96 % of control | dose: 12.5 mg/kg/injection, schedule: Q04DX003 (ip), vehicle: saline with Tween-80 105 % of control | dose: 25.0 mg/kg/injection, schedule: Q04DX003 (ip), vehicle: saline with Tween-80 102 % of control and 110 % of control | dose: 50.0 mg/kg/injection, schedule: Q01DX001 (ip), vehicle: saline 108 % of control | [12] 91 % of control
